Results taken from the NIST ThermoML archive (doi:10.1021/je900503p).
± gives the expanded uncertainty stated by the source.

Assays:
[1] = xn = mol fraction of the nth substance listed; conditions: 101 kPa, Liquid
[2] = refractive index (Na D-line) (dimensionless); xn = mol fraction of the nth substance listed; conditions: 101 kPa, Liquid
[3] = relative permittivity at zero frequency (dimensionless); xn = mol fraction of the nth substance listed; conditions: 101 kPa, Liquid, Dekameter

O=C1CCCO1 [γ-butyrolactone] + CCCCO
Conditions	mass density [kg/m3]	refractive index	relative permittivity at zero frequency
[1], 293.15 K, x1 = 0.0786	831.12 ± 0.41	–	–
[1], 293.15 K, x1 = 0.1555	852.82 ± 0.39	–	–
[1], 293.15 K, x1 = 0.2466	879.28 ± 0.36	–	–
[1], 293.15 K, x1 = 0.2901	892.18 ± 0.34	–	–
[1], 293.15 K, x1 = 0.3664	915.23 ± 0.32	–	–
[1], 293.15 K, x1 = 0.4332	935.89 ± 0.3	–	–
[1], 293.15 K, x1 = 0.4988	956.54 ± 0.29	–	–
[1], 293.15 K, x1 = 0.5616	976.71 ± 0.27	–	–
[1], 293.15 K, x1 = 0.6336	1000.34 ± 0.26	–	–
[1], 293.15 K, x1 = 0.7033	1023.73 ± 0.31	–	–
[1], 293.15 K, x1 = 0.7956	1055.39 ± 0.39	–	–
[1], 293.15 K, x1 = 0.8654	1080.09 ± 0.46	–	–
[1], 293.15 K, x1 = 0.9334	1104.36 ± 0.52	–	–
[1], 293.15 K, x1 = 0.9888	1124.69 ± 0.58	–	–
[1], 298.15 K, x1 = 0.0786	827.22 ± 0.42	–	–
[1], 298.15 K, x1 = 0.1555	848.94 ± 0.39	–	–
[1], 298.15 K, x1 = 0.2466	875.32 ± 0.36	–	–
[1], 298.15 K, x1 = 0.2901	888.19 ± 0.35	–	–
[1], 298.15 K, x1 = 0.3664	911.2 ± 0.33	–	–
[1], 298.15 K, x1 = 0.4332	931.77 ± 0.31	–	–
[1], 298.15 K, x1 = 0.4988	952.35 ± 0.29	–	–
[1], 298.15 K, x1 = 0.5616	972.46 ± 0.28	–	–
[1], 298.15 K, x1 = 0.6336	996.03 ± 0.26	–	–
[1], 298.15 K, x1 = 0.7033	1019.35 ± 0.31	–	–
[1], 298.15 K, x1 = 0.7956	1050.92 ± 0.38	–	–
[1], 298.15 K, x1 = 0.8654	1075.34 ± 0.45	–	–
[1], 298.15 K, x1 = 0.9334	1099.62 ± 0.51	–	–
[1], 298.15 K, x1 = 0.9888	1119.77 ± 0.57	–	–
[1], 303.15 K, x1 = 0.0786	823.57 ± 0.42	–	–
[1], 303.15 K, x1 = 0.1555	845.28 ± 0.4	–	–
[1], 303.15 K, x1 = 0.2466	871.63 ± 0.37	–	–
[1], 303.15 K, x1 = 0.2901	884.43 ± 0.35	–	–
[1], 303.15 K, x1 = 0.3664	907.36 ± 0.33	–	–
[1], 303.15 K, x1 = 0.4332	927.87 ± 0.31	–	–
[1], 303.15 K, x1 = 0.4988	948.38 ± 0.3	–	–
[1], 303.15 K, x1 = 0.5616	968.43 ± 0.28	–	–
[1], 303.15 K, x1 = 0.6336	991.92 ± 0.27	–	–
[1], 303.15 K, x1 = 0.7033	1015.09 ± 0.3	–	–
[1], 303.15 K, x1 = 0.7956	1046.55 ± 0.37	–	–
[1], 303.15 K, x1 = 0.8654	1070.81 ± 0.44	–	–
[1], 303.15 K, x1 = 0.9334	1094.88 ± 0.51	–	–
[1], 303.15 K, x1 = 0.9888	1114.92 ± 0.55	–	–
[1], 313.15 K, x1 = 0.0786	816.82 ± 0.44	–	–
[1], 313.15 K, x1 = 0.1555	839.3 ± 0.41	–	–
[1], 313.15 K, x1 = 0.2466	866.62 ± 0.38	–	–
[1], 313.15 K, x1 = 0.2901	879.94 ± 0.36	–	–
[1], 313.15 K, x1 = 0.3664	903.64 ± 0.34	–	–
[1], 313.15 K, x1 = 0.4332	924.87 ± 0.32	–	–
[1], 313.15 K, x1 = 0.4988	946.17 ± 0.3	–	–
[1], 313.15 K, x1 = 0.5616	966.89 ± 0.29	–	–
[1], 313.15 K, x1 = 0.6336	991.1 ± 0.27	–	–
[1], 313.15 K, x1 = 0.7033	1015.08 ± 0.3	–	–
[1], 313.15 K, x1 = 0.7956	1047.44 ± 0.38	–	–
[1], 313.15 K, x1 = 0.8654	1072.54 ± 0.44	–	–
[1], 313.15 K, x1 = 0.9334	1097.32 ± 0.51	–	–
[1], 313.15 K, x1 = 0.9888	1118.1 ± 0.57	–	–
[2], 293.15 K, x1 = 0.1098	–	1.4026 ± 0.0012	–
[2], 293.15 K, x1 = 0.2154	–	1.4063 ± 0.0012	–
[2], 293.15 K, x1 = 0.3009	–	1.4096 ± 0.0012	–
[2], 293.15 K, x1 = 0.4127	–	1.4136 ± 0.0012	–
[2], 293.15 K, x1 = 0.5088	–	1.4172 ± 0.0012	–
[2], 293.15 K, x1 = 0.6124	–	1.4213 ± 0.0012	–
[2], 293.15 K, x1 = 0.7001	–	1.4247 ± 0.0012	–
[2], 293.15 K, x1 = 0.8133	–	1.4294 ± 0.0013	–
[2], 293.15 K, x1 = 0.9078	–	1.4332 ± 0.0013	–
[2], 298.15 K, x1 = 0.1098	–	1.4014 ± 0.0012	–
[2], 298.15 K, x1 = 0.2154	–	1.4051 ± 0.0012	–
[2], 298.15 K, x1 = 0.3009	–	1.4083 ± 0.0012	–
[2], 298.15 K, x1 = 0.4127	–	1.4124 ± 0.0012	–
[2], 298.15 K, x1 = 0.5088	–	1.416 ± 0.0012	–
[2], 298.15 K, x1 = 0.6124	–	1.42 ± 0.0012	–
[2], 298.15 K, x1 = 0.7001	–	1.4234 ± 0.0012	–
[2], 298.15 K, x1 = 0.8133	–	1.4279 ± 0.0013	–
[2], 298.15 K, x1 = 0.9078	–	1.4316 ± 0.0013	–
[2], 303.15 K, x1 = 0.1098	–	1.4 ± 0.0012	–
[2], 303.15 K, x1 = 0.2154	–	1.4038 ± 0.0012	–
[2], 303.15 K, x1 = 0.3009	–	1.407 ± 0.0012	–
[2], 303.15 K, x1 = 0.4127	–	1.4111 ± 0.0012	–
[2], 303.15 K, x1 = 0.5088	–	1.4147 ± 0.0012	–
[2], 303.15 K, x1 = 0.6124	–	1.4186 ± 0.0012	–
[2], 303.15 K, x1 = 0.7001	–	1.4219 ± 0.0012	–
[2], 303.15 K, x1 = 0.8133	–	1.4263 ± 0.0013	–
[2], 303.15 K, x1 = 0.9078	–	1.43 ± 0.0013	–
[2], 313.15 K, x1 = 0.1098	–	1.3973 ± 0.0012	–
[2], 313.15 K, x1 = 0.2154	–	1.4013 ± 0.0012	–
[2], 313.15 K, x1 = 0.3009	–	1.4044 ± 0.0012	–
[2], 313.15 K, x1 = 0.4127	–	1.4085 ± 0.0012	–
[2], 313.15 K, x1 = 0.5088	–	1.4121 ± 0.0012	–
[2], 313.15 K, x1 = 0.6124	–	1.4158 ± 0.0012	–
[2], 313.15 K, x1 = 0.7001	–	1.4192 ± 0.0012	–
[2], 313.15 K, x1 = 0.8133	–	1.4232 ± 0.0013	–
[2], 313.15 K, x1 = 0.9078	–	1.4267 ± 0.0013	–
[3], 293.15 K, x1 = 0.1098	–	–	20.68 ± 0.06
[3], 293.15 K, x1 = 0.2154	–	–	22.37 ± 0.06
[3], 293.15 K, x1 = 0.3009	–	–	23.98 ± 0.06
[3], 293.15 K, x1 = 0.4127	–	–	26.17 ± 0.06
[3], 293.15 K, x1 = 0.5088	–	–	28.44 ± 0.06
[3], 293.15 K, x1 = 0.6124	–	–	31.29 ± 0.06
[3], 293.15 K, x1 = 0.7001	–	–	33.79 ± 0.06
[3], 293.15 K, x1 = 0.8133	–	–	37.12 ± 0.06
[3], 293.15 K, x1 = 0.9078	–	–	40.02 ± 0.06
[3], 298.15 K, x1 = 0.1098	–	–	19.61 ± 0.06
[3], 298.15 K, x1 = 0.2154	–	–	21.23 ± 0.06
[3], 298.15 K, x1 = 0.3009	–	–	22.55 ± 0.06
[3], 298.15 K, x1 = 0.4127	–	–	24.92 ± 0.06
[3], 298.15 K, x1 = 0.5088	–	–	27.23 ± 0.06
[3], 298.15 K, x1 = 0.6124	–	–	29.79 ± 0.06
[3], 298.15 K, x1 = 0.7001	–	–	32.21 ± 0.06
[3], 298.15 K, x1 = 0.8133	–	–	36.01 ± 0.06
[3], 298.15 K, x1 = 0.9078	–	–	39.13 ± 0.06
[3], 303.15 K, x1 = 0.1098	–	–	18.57 ± 0.06
[3], 303.15 K, x1 = 0.2154	–	–	19.99 ± 0.06
[3], 303.15 K, x1 = 0.3009	–	–	21.61 ± 0.06
[3], 303.15 K, x1 = 0.4127	–	–	23.88 ± 0.06
[3], 303.15 K, x1 = 0.5088	–	–	26.16 ± 0.06
[3], 303.15 K, x1 = 0.6124	–	–	28.82 ± 0.06
[3], 303.15 K, x1 = 0.7001	–	–	31.34 ± 0.06
[3], 303.15 K, x1 = 0.8133	–	–	35.03 ± 0.06
[3], 303.15 K, x1 = 0.9078	–	–	38.46 ± 0.06
[3], 313.15 K, x1 = 0.1098	–	–	16.65 ± 0.06
[3], 313.15 K, x1 = 0.2154	–	–	18.16 ± 0.06
[3], 313.15 K, x1 = 0.3009	–	–	19.99 ± 0.06
[3], 313.15 K, x1 = 0.4127	–	–	22.01 ± 0.06
[3], 313.15 K, x1 = 0.5088	–	–	24.43 ± 0.06
[3], 313.15 K, x1 = 0.6124	–	–	26.76 ± 0.06
[3], 313.15 K, x1 = 0.7001	–	–	29.25 ± 0.06
[3], 313.15 K, x1 = 0.8133	–	–	33.05 ± 0.06
[3], 313.15 K, x1 = 0.9078	–	–	36.56 ± 0.06
